Where two headings read alike, the source gives them in different places.
Experiments:
Format in all cases: cell-based
[1] = HCV Replicon 2A CC50, calcein AM (Example Q); conditions: calcein AM fluorescence, read-out: HCV Replicon 2A CC50 (nM) (per Ex. Q)
Description: (§1) Compounds were serially diluted in ten steps of 1:3 dilutions in 384-well plates. All serial dilutions were performed in four replicates per compound within the same 384-well plate. An HCV protease inhibitor ITMN-191 at […] was added as a control of 100% inhibition of HCV replication while puromycin at 10 mM was included as a control of 100% cytotoxicity. To each well of a black polystyrene 384-well plate (Greiner Bio-one, Monroe, NC), 90 μL of cell culture medium (without Geneticin) containing 2000 suspended HCV replicon cells was added with a Biotek μFlow workstation. For compound transfer into cell culture plates, 0.4 μL of compound solution from the compound serial dilution plate was transferred to the cell culture plate on a Biomek FX workstation. The DMSO concentration in the final assay wells was 0.44%. The plates were incubated for 3 days at 37° C. with 5% CO2 and 85% humidity. The HCV replicon assay was a multiplex assay, able to assess both cytotoxicity and antireplicon activity from the same well. The CC50 assay was performed first. The media in the 384-well cell culture plate was aspirated, and the wells were washed four times with 100 μL of PBS each, using a Biotek ELX405 plate washer. A volume of 50 μL of a solution containing 400 nM calcein AM (Anaspec, Fremont, CA) in 1×PBS was added to each well of the plate with a Biotek μFlow workstation. The plate was incubated for 30 min at room temperature before the fluorescence signal (excitation 490 nm, emission 520 nm) was measured with a Perkin-Elmer Envision plate reader. The EC50 assay was performed in the same wells as the CC50 assay. The calcein-PBS solution in the 384-well cell culture plate was aspirated with a Biotek ELX405 plate washer. A volume of 20 μL of Dual-Glo luciferase buffer (Promega, Madison, WI) was added to each well of the plate with a Biotek μFlow Workstation. The plate was incubated for 10 min at room temperature. A volume of 20 μL of a solution containing a 1:100 mixture of Dual-Glo Stop & Glo substrate (Promega, Madison, WI) and Dual-Glo Stop & Glo buffer (Promega, Madison, WI) was added to each well of the plate with a Biotek μFlow Workstation. The plate was then incubated at room temperature for 10 min before the luminescence signal was measured with a Perkin-Elmer Envision Plate Reader.

HCV Replicon 1B = HCV Replicon 1B EC50 (Example Q); conditions: Hepatitis C virus, 72 h, read-out: HCV Replicon 1B EC50 (nM) (per Ex. Q)
Description: as §1

[2] = system: Respiratory syncytial virus recombinant with luciferase (RSV-Luc5) in HEp-2 cells; assay: HEp-2 RSV-Luc5 384-well assay (EC50 RSVFLUC Hep2-384 v2, Example V); conditions: human respiratory syncytial virus, HEp-2, 72 h, read-out: RSV Hep-2 FLuc EC50 (v2) (nM) (per Ex. V)
Method in brief: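 HEp-2 cells (4,000/well) infected with RSV-Luc5 at MOI 0.5 in DMEM/10% FBS with compound, 10-point 1:3 dilutions, 3 days at 37 °C. Replication read by One-Glo luminescence, normalized to remdesivir (0%) and DMSO (100%). EC50 from non-linear regression as concentration giving 50% reduction.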

HCV Replicon 2A = HCV Replicon 2A EC50 (Example Q); conditions: Hepatitis C virus, 72 h, read-out: HCV Replicon 2A EC50 (nM) (per Ex. Q)
Description: as §1

[3] = HCV replicon cells, 3 days, Dual-Glo luciferase

CCCCCCCCCCCCCCCCCCOC[C@H](COP(=O)(O)OC[C@@]1(C#N)O[C@@H](c2ccc3c(N)ncnn23)[C@H](O)[C@@H]1O)OCc1ccc(C#N)c(Cl)c1 [Compound 7, ((2R,3S,4R,5S)-5-(4-aminopyrrolo[2,1-f][1,2,4]triazin-7-yl)-2-cyano-3,4-dihydroxytetrahydrofuran-2-yl)methyl ((R)-2-((3-chloro-4-cyanobenzyl)oxy)-3-(octadecyloxy)propyl) hydrogen phosphate]
CC50 at 3 days ([1]; HCV replicon cells (2A)): > 44400 nM | EC50 (HCV Replicon 1B; [3]): 16700 nM | EC50 [2]: 284 nM | EC50 (HCV Replicon 2A; [3]): 30600 nM

CCCCCCCCCCCCCCCCCCOC[C@H](COP(=O)(O)OC[C@@]1(C#N)O[C@@H](c2ccc3c(N)ncnn23)[C@H](O)[C@@H]1O)OCc1cccc(C#N)n1 [Compound 68, ((2R,3S,4R)-5-(4-aminopyrrolo[2,1-f][1,2,4]triazin-7-yl)-2-cyano-3,4-dihydroxytetrahydrofuran-2-yl)methyl ((R)-2-((6-cyanopyridin-2-yl)methoxy)-3-(octadecyloxy)propyl) hydrogen phosphate]
CC50 at 3 days ([1]; HCV replicon cells): > 44400 nM | EC50 (HCV Replicon 1B): 11500 nM | EC50 [2]: 110 nM | EC50 (HCV Replicon 2A): 15200 nM

CCCCCCCCCCCCCCCCC[C@H](COP(=O)(O)OC[C@@]1(C#N)O[C@@H](c2ccc3c(N)ncnn23)[C@H](O)[C@@H]1O)OCc1cc(F)cc(C#N)c1 [Compound 36, ((2R,3S,4R,5S)-5-(4-aminopyrrolo[2,1-f][1,2,4]triazin-7-yl)-2-cyano-3,4-dihydroxytetrahydrofuran-2-yl)methyl ((R)-2-((3-cyano-5-fluorobenzyl)oxy)nonadecyl) hydrogen phosphate]
CC50 at 3 days ([1]; HCV replicon cells): > 44400 nM | EC50 (HCV Replicon 1B): 26300 nM | EC50 [2]: 353 nM | EC50 (HCV Replicon 2A): 21800 nM

— US20250034182A1, “PHOSPHOLIPID COMPOUNDS AND METHODS OF MAKING AND USING THE SAME” (priority 2021, published 2025)
